Measured values from the NIST ThermoML archive (doi:10.1021/acs.jced.8b00222).
± gives the expanded uncertainty stated by the source.

Key:
[1] = 293.15 K; 101.33 kPa; Liquid; Pycnometric method
[2] = refractive index (Na D-line) (dimensionless); details: 293.15 K; 101.33 kPa; Liquid; Standard Abbe refractometry

Row | Structure (SMILES) | mass density [1] [kg/m3] | refractive index [2]
1 | O=Cc1ccco1 [2-furaldehyde] | 1159.16 ± 2.2 | 1.5259 ± 0.0008
2 | COC1CCCC1 [methoxycyclopentane] | 860.13 ± 2.1 | 1.4187 ± 0.0008
3 | CC(=O)O [acetic acid] | 1048.93 ± 2.2 | 1.3717 ± 0.0008
4 | O [water] |  | 1.3334 ± 0.0005
